EC50 data for ten compounds are collected here from BindingDB's records for doi:10.1016/j.bmcl.2007.03.028 (Merck Frosst Centre For Therapeutic Research, 2007).

The term pEC50 denotes the negative decadic logarithm of the EC50, by convention in mol/L. Read a low pEC50 as a large EC50.

pEC50: −log10 of the molar value. Values joined by “and” are separate entries in the source; they are usually repeats but may differ in a detail not shown here. Identical values can stand only once.

The experiment deals with T1, Cathepsin K (Oryctolagus cuniculus, UniProt P43236).
T1 sequence (P43236 whole entry): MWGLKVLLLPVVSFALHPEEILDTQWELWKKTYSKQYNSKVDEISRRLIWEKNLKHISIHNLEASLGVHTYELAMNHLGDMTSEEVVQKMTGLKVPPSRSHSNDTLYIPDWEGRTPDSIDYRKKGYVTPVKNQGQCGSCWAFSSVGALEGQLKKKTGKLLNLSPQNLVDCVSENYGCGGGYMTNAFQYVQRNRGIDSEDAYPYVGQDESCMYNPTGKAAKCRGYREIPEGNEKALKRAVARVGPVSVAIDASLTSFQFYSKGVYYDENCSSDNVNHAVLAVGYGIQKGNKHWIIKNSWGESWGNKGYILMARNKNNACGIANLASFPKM
Kind of experiment: In Vitro Enzyme Inhibition Assay and Bone-Resorption Assay. As to conditions: pH 5.5; 22 °C. As to the method:
Prior to the addition of substrate, different concentrations of the inhibitor ranging from 100 uM to 0.2 nM were preincubated for 15 min with enzyme to allow the establishment of the enzyme-inhibitor complex. The proteolytic cleavage of N-acyl aminocoumarins by cathepsins was conducted in 96-well plate format and the plate read using a Spectramax (Molecular Devices) plate reader. The excitation wavelength was 355 nm and the emission wavelength was 460 nm for peptidyl-AMC substrates. The percent inhibition of the reaction was calculated from a control reaction containing only vehicle. IC50 curves were generated by fitting percent inhibition values to a four parameter logistic model (SOFTMAX PRO, Molecular Devices). EC50/IC50 values were obtained from bone-resorption assay. The long bones were aseptically isolated from a 10-day-old New Zealand White […] (Covance Research Products, Denver, PA) and the soft tissue removed.

The compound `CSc1ccc(-c2cnccc2[C@@H]2CCC(F)(F)C[C@H]2C(=O)NCC#N)cc1` [(1R,2R)-N-(cyanomethyl)-5,5-difluoro-2-{3-[4-(methylsulfanyl)phenyl]pyridin-4-yl}cyclohexane-1-carboxamide] had a pEC50 of 7.74.
As for `CSc1ccc(-c2cn(C)nc2[C@@H]2CCC(F)(F)C[C@H]2C(=O)NCC#N)cc1`, the pEC50 was 7.39. This pEC50 is 0.35 log units lower than that of the compound before.
Compound `CSc1ccc(-c2c([C@@H]3CCC(F)(F)C[C@H]3C(=O)NCC#N)cc[nH]c2=O)cc1` [(1R,2R)-N-(cyanomethyl)-5,5-difluoro-2-{3-[4-(methylsulfanyl)phenyl]-2-oxo-1,2-dihydropyridin-4-yl}cyclohexane-1-carboxamide] had a pEC50 of 7.08. Compared with the last compound, the pEC50 is 0.31 log units lower.
The same measure for `CSc1ccc(-c2c([C@@H]3CCC(F)(F)C[C@H]3C(=O)NCC#N)nnn2Cc2ccccc2)cc1` [(1R,2R)-2-{1-benzyl-5-[4-(methylsulfanyl)phenyl]-1H-1,2,3-triazol-4-yl}-N-(cyanomethyl)-5,5-difluorocyclohexane-1-carboxamide]: 7.48; for `CSc1ccc(-c2ccccc2[C@@H]2CCC(F)(F)C[C@H]2C(=O)NCC#N)cc1` [(1R,2R)-N-(cyanomethyl)-5,5-difluoro-2-{2-[4-(methylsulfanyl)phenyl]phenyl}cyclohexane-1-carboxamide]: 7.80 and 7.42; for `CSc1ccc(-c2nc(C)sc2[C@@H]2CCC(F)(F)C[C@H]2C(=O)NCC#N)cc1` [(1R,2R)-N-(cyanomethyl)-5,5-difluoro-2-{2-methyl-4-[4-(methylsulfanyl)phenyl]-1,3-thiazol-5-yl}cyclohexane-1-carboxamide]: 7.77.
The compound `CSc1ccc(-c2c[nH]c(=O)cc2[C@@H]2CCC(F)(F)C[C@H]2C(=O)NCC#N)cc1` [(1R,2R)-N-(cyanomethyl)-5,5-difluoro-2-{5-[4-(methylsulfanyl)phenyl]-2-oxo-1,2-dihydropyridin-4-yl}cyclohexane-1-carboxamide] showed a negative logarithm of the EC50 (pEC50) of 7.70.
The same measure for `CSc1ccc(-c2c[n+]([O-])ccc2[C@@H]2CCC(F)(F)C[C@H]2C(=O)NCC#N)cc1` [4-[(1R,2R)-2-[(cyanomethyl)carbamoyl]-4,4-difluorocyclohexyl]-3-[4-(methylsulfanyl)phenyl]-1-pyridin-1-olate]: 7.12; for `CSc1ccc(-c2ncccc2[C@@H]2CCC(F)(F)C[C@H]2C(=O)NCC#N)cc1` [(1R,2R)-N-(cyanomethyl)-5,5-difluoro-2-{2-[4-(methylsulfanyl)phenyl]pyridin-3-yl}cyclohexane-1-carboxamide]: 8.00; for `N#CCNC(=O)[C@@H]1CC(F)(F)CC[C@H]1c1cnccc1-c1ccc(SCF)cc1` [(1R,2R)-N-(cyanomethyl)-5,5-difluoro-2-(4-{4-[(fluoromethyl)sulfanyl]phenyl}pyridin-3-yl)cyclohexane-1-carboxamide]: 7.24.
